Like-named read-outs stand apart in the source and are kept apart here.
Key:
[1] = tested on: Arachidonoylethanolamide Transport (AEAT); assay: Cellular uptake of [3H]-AEA in U937 cells (assay C); type: cell-based, Human; conditions: Homo sapiens, U-937, read-out: EC50 value, AEA re-uptake inhibition
Method: 5x10^5 cells were collected and suspended in 500 µL of sterile PBS (Sigma, San Louis, MO, US) using glass silanized tubes. Cells were pre-incubated 10 min at 37°C in presence of test compounds in a concentration range of 10^-8 - 10^-4 M or in presence of the same amount of solvent (control). Then a mixture of 50 nM [^3H]-AEA (60 Ci/mmol) (American Radiolabeled Chemicals, Inc., San Louis, MO, US) and 50 nM of nonradioactive AEA (Tocris Cookson Ltd., Bristol, UK) was added and samples were incubated at 37°C for different times in the range of 1-60 min. The reaction was stopped by rapid filtration over Whatman GF/C filters pre-soaked in 0,25 % BSA. […] The filters-bound radioactivity was measured using a Beckman LS6500 scintillation counter. Results were expressed as % of AEA uptake versus cells treated with solvent and the EC50 and IC50 values were calculated from the sigmoidal curves, which were generated using the GraphPad Prism (GraphPad Software, San Diego, CA, US).

FAAH = biological target: T1, FAAH (Sus scrofa, UniProt Q9TUI8); assay: Fatty acid amide hydrolase (FAAH) inhibition, pig brain homogenate (assay D); type: biochemical; conditions: 1 µM; pig brain homogenate (assay D)
T1 construct: 165 µl of diluted pig brain homogenate; from tissue; host or cells: pig brain homogenate
T1 sequence (Q9TUI8 1-579): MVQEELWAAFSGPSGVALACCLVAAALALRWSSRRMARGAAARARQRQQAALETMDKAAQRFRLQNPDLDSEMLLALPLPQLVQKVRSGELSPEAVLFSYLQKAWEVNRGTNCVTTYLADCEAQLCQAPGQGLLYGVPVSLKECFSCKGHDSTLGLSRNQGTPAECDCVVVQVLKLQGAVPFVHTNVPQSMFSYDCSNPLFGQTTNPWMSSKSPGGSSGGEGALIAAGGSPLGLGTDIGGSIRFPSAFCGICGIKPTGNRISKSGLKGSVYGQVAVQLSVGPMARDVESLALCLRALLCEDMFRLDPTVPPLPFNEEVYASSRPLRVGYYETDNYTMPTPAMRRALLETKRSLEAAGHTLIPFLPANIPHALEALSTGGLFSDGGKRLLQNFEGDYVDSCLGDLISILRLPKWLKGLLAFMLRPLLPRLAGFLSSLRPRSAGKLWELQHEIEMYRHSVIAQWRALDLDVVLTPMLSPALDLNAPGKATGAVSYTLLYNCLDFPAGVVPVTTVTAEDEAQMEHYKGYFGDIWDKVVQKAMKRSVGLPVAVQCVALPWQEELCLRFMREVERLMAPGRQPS

TNF-alpha release = assay: LPS-induced TNF-alpha release from human macrophages (ELISA); type: cell-based; conditions: Figure 4; LPS 500 ng/ml; 5 µM for 18 h
Method: • Figure 1: AEA re-uptake inhibition of 2E,4E-dieneamides 1 and 9 into human primary monocytes and U937 cells. […] Data are mean values ± SEM of 3 independent experiments in a sigmoidal dose-response curve. • Figure 2: Concentration-dependent effects of 4 and 5 on FAAH activity. […] The maximal inhibition (32%) of 5 was measured at 1 µM. Data are mean values ± SEM of 3 independent experiments. • Figure 3: Effects of low nM concentrations of N-alkylamide 7 on FAAH activity alone and in combination with the FAAH inhibitor URB597. […] Data are mean values ± SEM of 3 independent experiments. • Figure 4: 1 and 9 inhibit LPS-induced TNF-alpha release into culture medium (measured by ELISA). Human macrophages (10^6 cells) were stimulated with LPS (500 ng/ml) and treated with UCM707 and/or compounds 1 and 9 at 5 µM for 18 h. N = 3 ± SEM. • Figure 5: UCM707 (positive control) and compounds 1 and 9 diminish NO2^- production. Human macrophages (10^6 cells) were stimulated with LPS (500 ng/ml) and treated with UCM707 and/or compounds 1 and 9 at 5 µM for 18 h. Culture supernatants were assayed for nitrite levels, using the Griess reagent as a reflection of NO production. […]

IL-8 = assay: Induced chemokine IL-8 in HaCaT keratinocytes; type: cell-based, human; conditions: Figure 6, 5 µM, tolerogen 10 µg/ml, 6h
Method: • Figure 1: AEA re-uptake inhibition of 2E,4E-dieneamides 1 and 9 into human primary monocytes and U937 cells. […] Data are mean values ± SEM of 3 independent experiments in a sigmoidal dose-response curve. • Figure 2: Concentration-dependent effects of 4 and 5 on FAAH activity. […] The maximal inhibition (32%) of 5 was measured at 1 µM. Data are mean values ± SEM of 3 independent experiments. • Figure 3: Effects of low nM concentrations of N-alkylamide 7 on FAAH activity alone and in combination with the FAAH inhibitor URB597. […] Data are mean values ± SEM of 3 independent experiments. • Figure 4: 1 and 9 inhibit LPS-induced TNF-alpha release into culture medium (measured by ELISA). Human macrophages (10^6 cells) were stimulated with LPS (500 ng/ml) and treated with UCM707 and/or compounds 1 and 9 at 5 µM for 18 h. N = 3 ± SEM. • Figure 5: UCM707 (positive control) and compounds 1 and 9 diminish NO2^- production. Human macrophages (10^6 cells) were stimulated with LPS (500 ng/ml) and treated with UCM707 and/or compounds 1 and 9 at 5 µM for 18 h. Culture supernatants were assayed for nitrite levels, using the Griess reagent as a reflection of NO production. Results are the mean ± SEM of four independent experiments performed in duplicate • Figure 6: In CB receptor expressing human HaCaT keratinocytes (10^6 cells) UCM707 (control) 1 and 9 like the endocannabinoid anandamide (each 5 µM) inhibited tolerogen (10 µg/ml) induced chemokine IL-8 (6h stimulation and incubation). N = 3 ± SEM.

[2] = tested on: Arachidonoylethanolamide Transport (AEAT); assay: Cellular uptake of [3H]-AEA in U937 cells (assay C); type: cell-based; conditions: Homo sapiens, U-937; [3H]-AEA uptake, assay C (Tables 2 and 3)

Row | Structure (SMILES) | EC50 [1] [µM] | FAAH inhibition at 1 µM (FAAH) | LPS-induced TNF-alpha release into culture medium (TNF-alpha release) | tolerogen induced chemokine IL-8 (IL-8) | EC50 [2] [µM]
1 | CCCCCCC/C=C/C=C/C(=O)NCCO [Example 1, (2E,4E)-N-(2-hydroxyethyl)dodeca-2,4-diene amide] | 1.23 ± 0.305 | <10 % of control | inhibit | inhibited | 1.22 ± 0.24
2 | CCCCCCC/C=C/C=C/C(=O)NCCc1cccc(OC)c1 [Example 9, (2E,4E)-N-(3-methoxyphenethyl)dodeca-2,4-diene amide] | 0.869 ± 0.172 | 14.63 ± 2.91 % of control | inhibit | inhibited | 0.87 ± 0.12

Reference: patent publication EP2435019B1, “DODECA-2E,4E-DIENE AMIDES AND THEIR USE AS MEDICAMENTS AND COSMETICS” (Dr. August Wolff GmbH & Co. KG Arzneimittel, priority 2009, dated 2010)
